# PubChem BioAssay (NCI)
# Where “and” joins values, the source holds several entries; their conditions need not be identical. Identical values can stand only once.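 These data come from cells grown in 96-well plates and exposed to compound for 48 hours at five concentrations. The concentration for 50% growth inhibition is given as GI50. TGI: concentration producing complete growth inhibition.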
# Key:
# Test in all cases: NCI tumour cell line growth inhibition, 48 h
# [1] = system: MDA-MB-231 breast
# [2] = system: MDA-MB-435
# [3] = system: T-47D breast
# [4] = system: RXF-631 renal
# [5] = system: KM20L2 colon
# [6] = system: HOP-18 NSCLC
# [7] = system: MDA-N
# [8] = system: DMS 114 small cell lung
# [9] = system: XF 498 CNS
Compound,GI50 [1],TGI [1],GI50 [2] [µM],TGI [2],GI50 [3],TGI [3],further results
COc1cc(C)c(N(C)C(=O)CN(C)C)cc1Nc1nc(Nc2cccc(F)c2C(N)=O)c2cc[nH]c2n1,> 25 µM,> 25 µM,> 25,> 25 µM,> 25 µM,> 25 µM,–
CCCCCn1ncc(-c2c(O)c(O)cc3c(O)c(-c4c(C)cc5c(-c6cnn(CCCCC)n6)c(O)c(O)cc5c4O)c(C)cc23)n1,0.182 µM,5.67 µM,0.109,5.02 µM,0.0627 µM,1.42 µM,–
CN([N-]C(=O)CC(=O)[N-]N(C)C(=S)c1ccccc1)C(=S)c1ccccc1.[Cu+2],0.0221 µM,0.132 µM,0.0437,0.171 µM,< 0.01 µM,0.101 µM,–
COc1cc2c(c(OC)c1OC)C(=O)c1c-2n(CCCN)c(=O)c2cc([N+](=O)[O-])ccc12,1.8 µM,4 µM,1.07,2.4 µM,2.48 µM,6.91 µM,–
COc1ccc2c(CCNS(=O)(=O)c3ccccc3)c(C(C)=O)[nH]c2c1[N+](=O)[O-],–,–,–,–,–,–,TGI [4]: > 100 µM; TGI [5]: > 100 µM
O=C(CN1C(=O)c2ccccc2C1=O)OC1C=CCCC1 (stereo not drawn),–,–,–,–,–,–,TGI [5]: > 100 µM; TGI [6]: > 100 µM
O=C1c2ccccc2C(=O)c2c1c(NCCNCCO)c1cc[nH]c1c2NCCNCCO,4.15 µM,18.9 µM,3.03,11.9 µM,11.8 µM,> 46.5 µM,–
CN1CCN(c2ccc3nc(-c4ccc5nc(-c6ccc(C(F)(F)F)cc6)[nH]c5c4)[nH]c3c2)CC1,2.11 µM,3.85 µM,1.66,3.1 µM,1.38 µM,3.33 µM,–
CCCN(CCC)c1ccc(C=O)c(OC)c1,–,–,20,78.9 µM,12.5 µM,57.5 µM,–
S=C1SC2(CCCCCC2)NC2=C1CCCCC2,–,> 100 µM,–,> 100 µM,–,> 100 µM,TGI [7]: > 100 µM
O=c1c2ccccc2c(C=NCCNCCO)c2oc3ccccc3n12,11.5 µM,24.4 µM,12.3,24.7 µM,4.12 µM,17.9 µM,–
COc1ccc(S(=O)(=O)N2CCCCC2)cc1NC(=O)c1[nH]c(C)c2c1CCCCC2=O,0.718 µM,> 100 µM,2.49,> 100 µM,1.41 µM,46.9 µM,–
CC(C)NCCCNC1=C(Cl)C(=O)c2ccccc2C1=O,4.08 µM,18.3 µM,2.1,4.07 µM,8.02 µM,33.8 µM,–
CC(C)(C)c1ccc(NC(=O)c2cc(=O)c3ccccc3[nH]2)c(C(C)(C)C)c1O,3.29 µM,13.9 µM,4.92,17.7 µM,7.49 µM,21.9 µM,–
c1ccc2c(c1)[Se]c1ccccc1[Se]2,–,–,–,–,–,–,TGI [8]: > 100 µM; TGI [9]: > 100 µM; TGI [5]: > 100 µM; TGI [6]: 98.6 µM
CP(=O)(CCSc1ccccc1)c1ccccc1 (stereo not drawn),–,–,–,–,–,–,TGI [8]: > 100 µM; TGI [9]: > 100 µM; TGI [5]: > 100 µM; TGI [6]: > 100 µM
Cc1occc1C(=S)Nc1ccc(Cl)c(C(=O)OCC2CC2)c1,–,> 100 µM,–,> 100 µM,–,> 100 µM,TGI [7]: > 100 µM
Cc1ccc2nc(NC(=O)CSC(=S)N3CCN(Cc4ccccc4)CC3)sc2c1,> 100 µM,> 100 µM,> 100,> 100 µM,72.3 µM,> 100 µM,–
CC(C)(C)OC(=O)N(CCCn1c2c(c3ccccc3c1=O)C(=O)c1ccccc1-2)CCN(CCCn1c2c(c3ccccc3c1=O)C(=O)c1ccccc1-2)C(=O)OC(C)(C)C,15.3 µM,> 50 µM,> 50,> 50 µM,> 50 µM,> 50 µM,–
COc1cc2c(C#N)n3c(c2cc1OC)C(=O)C(c1ccccc1)Oc1ccccc1-3 (stereo not drawn),4.05 µM,68.6 µM,–,–,–,–,–
CCOc1ccc2c(-c3ccnc(Nc4cccc(C(F)(F)F)c4)n3)cnn2n1,14.7 µM,> 25 µM,9.93,> 25 µM,1.4 µM,> 25 µM,–

Compound,GI50 [1],TGI [1],GI50 [2] [µM],TGI [2],GI50 [3],TGI [3],further results
CO/N=C(\COc1ccc2c(=O)cc(-c3ccccc3)oc2c1)c1ccc(OC)cc1,48.4 µM,> 100 µM,30,> 100 µM,53.5 µM,> 100 µM,–
C=C(C)[C@@H]1CC[C@]2(C)[C@H](CC=C3[C@@H]4CC(C)(C)CC[C@]4(C(=O)OC)CC[C@]32C)[C@@]1(C)CC/C(N)=N/O,1.61 µM,3.24 µM,1.78,3.65 µM,2.46 µM,9.77 µM,–
CC(=O)OC1CC(C)c2c1ncnc2N1CCN(C(=O)OC(C)(C)C)CC1 (stereo not drawn),42.8 µM,> 100 µM,19.8,41 µM,54 µM,> 100 µM,–
COc1cc2c3c(n(CCCn4cccn4)c(=O)c2cc1OC)-c1cc2c(cc1C3=O)OCO2,8.65 µM,35.5 µM,6.23,39.2 µM,2.2 µM,> 100 µM,–
Nc1nc(N)c2ncn(Cc3c(Cl)cccc3Cl)c2n1,–,> 100 µM,–,> 100 µM,–,> 100 µM,TGI [7]: > 100 µM
COc1ccccc1NC(=O)N/C(N)=N/c1nc2ccccc2s1,3.48 µM,> 100 µM,0.0211,0.0692 µM,0.394 µM,> 100 µM,–
O=c1cc(-c2ccccc2)oc2cc(OCc3cn(Cc4ccc(F)cc4)nn3)cc(O)c12,16.6 µM,> 100 µM,–,–,–,–,–
Cc1cc(C)c(S(=O)(=O)Oc2ccccc2[N+](=O)[O-])c(C)c1,3.7 µM,> 100 µM,0.239,0.879 µM,4.79 µM,> 100 µM,–
O=C(O/N=C1/CCC/C1=C\c1ccccc1)c1ccc(Cl)cc1,–,–,–,–,–,–,TGI [9]: > 100 µM; TGI [5]: > 100 µM; TGI [6]: > 100 µM
COc1ccc(CNCCCN2C(=O)c3ccc4c5c(ccc(c35)C2=O)C(=O)N(CCCNCCCCNCCCN)C4=O)c(OC)c1OC,2.44 µM,18 µM,1.17,6.57 µM,0.335 µM,1.88 µM,–
CCN(CCc1ccc(F)cc1)c1ccc(CO)c(Cl)c1,11.4 µM,24.4 µM,15.6,31.8 µM,1.39 µM,12.7 µM,–
CC(C)(C)c1cc2c(OP(c3ccccc3)c3ccccc3)c(c1)Cc1cc(C(C)(C)C)cc(c1OP(c1ccccc1)c1ccccc1)Cc1cc(C(C)(C)C)cc(c1OP(c1ccccc1)c1ccccc1)Cc1cc(C(C)(C)C)cc(c1OP(c1ccccc1)c1ccccc1)C2,–,–,–,–,–,–,GI50 [8]: > 50 µM; TGI [8]: > 50 µM; GI50 [5]: > 50 µM; TGI [5]: > 50 µM; TGI [6]: > 5 µM
NCC(=O)OCN1C(=O)C2C3C=CC(C2C1=O)C1C2C(=O)N(COC(=O)CN)C(=O)C2C31 (stereo not drawn),–,–,–,–,–,–,TGI [8]: 39 µM and 36.8 µM; TGI [9]: 54.7 µM and 64.1 µM; TGI [5]: 52.9 µM and 81.9 µM; TGI [6]: 54.4 µM and 73.7 µM
COc1cc(/C=C\c2cc(/C=C\c3ccc(O)c(OC)c3)n(C(=O)Nc3ccc(C(F)(F)F)cc3)n2)ccc1O,3.06 µM,9.62 µM,2.35,7.06 µM,2.81 µM,39 µM,–
CC(=O)OC1C(O)COC(Oc2c(C)c3c4c(c2O)[C@@H](C)CC[C@@H]4[C@@H](C)C[C@H]3C=C(C)C)C1O (stereo partly drawn),–,–,24,67.4 µM,39.4 µM,> 100 µM,–
COc1cc2c(cc1OCCN1C(=O)c3cccc4cccc(c34)C1=O)N=C[C@@H]1CCCN1C2=O,> 100 µM,14.6 µM and > 100 µM,16,25 µM and 35.9 µM,18.9 µM,28.2 µM and > 100 µM,GI50 [7]: 20.3 µM; TGI [7]: 14.8 µM and 45.8 µM
CN1C(=O)NC2(O)c3ccccc3C(=O)C12O (stereo not drawn),–,–,–,–,–,–,TGI [8]: > 100 µM; TGI [9]: > 100 µM; TGI [5]: > 100 µM
COc1cc([N+](=O)[O-])c(S(=O)(=O)O)cc1-n1nc(-c2ccccc2)n[n+]1-c1cc(S(=O)(=O)[O-])c([N+](=O)[O-])cc1OC,–,> 100 µM,–,> 100 µM,–,> 100 µM,TGI [7]: > 100 µM
CC(=O)c1ccc(NCn2nc(-c3ccccc3O)oc2=S)cc1,37.6 µM,> 100 µM,> 100,> 100 µM,85.9 µM,> 100 µM,–
S=C(S)NCCCn1ccnc1,–,> 100 µM,–,> 100 µM,–,> 100 µM,TGI [7]: > 100 µM
COc1ccc2c3c([nH]c2c1[N+](=O)[O-])C(C)N(C(=O)/C=C/c1ccccc1)CC3 (stereo not drawn),–,–,–,–,–,–,TGI [5]: > 100 µM

Compound,GI50 [1],TGI [1],GI50 [2] [µM],TGI [2],GI50 [3],TGI [3],further results
COc1ncnc2c1ncn2C/C(Br)=C(\Br)CCl,2.4 µM,7.28 µM,2.94,11.5 µM,2.37 µM,6.84 µM,–
COC(=O)/C1=C/C2CC(/C=C(/c3ccccc3)C(=O)O1)C2,–,–,–,–,–,–,TGI [8]: 55.8 µM; TGI [9]: 45.2 µM; TGI [6]: > 100 µM
CNC1=C(Br)C(=O)C2=C(C1=O)C1C3=C(C(=O)C=CC3=O)C2c2ccccc21 (stereo not drawn),2.94 µM,4.93 µM,6.59,14.7 µM,2.9 µM,> 40.3 µM,–
CCC(=O)[O-].CCC(=O)[O-].N.N.N.N.[Co+3].[O-][Cl+3]([O-])([O-])[O-],–,–,–,–,–,–,GI50 [5]: > 100 µM; TGI [5]: > 100 µM
COc1ccc(-n2nc(C)c3c(Nc4ccc(NC(=O)Nc5cc(C(F)(F)F)ccc5F)cc4)ncnc32)cc1,1.61 µM,3.55 µM,2.44,6.51 µM,2.57 µM,8.72 µM,–
O=C(O)C1(C(=O)O)CCN(S(=O)(=O)c2ccccc2)CC1,–,> 100 µM,–,> 100 µM,–,> 100 µM,TGI [7]: > 100 µM
C#Cc1cccc(N2C(=O)CC(=P(c3ccccc3)(c3ccccc3)c3ccccc3)C2=O)c1,–,–,–,–,–,–,TGI [8]: 72.6 µM; TGI [9]: 38.8 µM
COc1cccc2c1C(=O)c1c(O)c3c(c(O)c1C2=O)C[C@@](O)(C(=O)COC(=O)c1cccnc1)C[C@@H]3OC1CC(N)C(O)C(C)O1 (stereo partly drawn),0.327 µM,1.96 µM,0.217,1 µM,0.0982 µM,2.64 µM,–
O=C(/C=C/c1ccccc1)c1ccc(O)c(CN2CCN(c3cc4c(cc3F)c(=O)c(C(=O)O)cn4C3CC3)CC2)c1,1.94 µM,7.65 µM,1.5,25.7 µM,1.77 µM,> 100 µM,–
C[C@]1(O)CC(=O)[C@]2(O)C3=C(C=C[C@]2(O)C1)C(=O)c1c(O)cccc1C3=O,2.25 µM,6.6 µM,1.85,3.44 µM,1.85 µM,4.57 µM,–
Cc1cc2cc(Oc3ccnc(Nc4cccc(CS(=O)(=O)NCCN(C)C)c4)n3)ccc2[nH]1,4.61 µM,17.2 µM,5.37,18.4 µM,4.93 µM,22.7 µM,–
COc1ccc(-c2ccc(=O)oc2-c2cc(OC)c(OC)c(OC)c2)cc1O,0.0613 µM,> 100 µM,–,–,> 100 µM,> 100 µM,–
O=C(O)c1cc2c3c(c1)[C@H]1C=CC[C@H]1CN3CC1CC=CC21 (stereo partly drawn),–,–,–,–,–,–,TGI [8]: > 100 µM; TGI [9]: > 100 µM; TGI [5]: > 100 µM; TGI [6]: > 100 µM
c1ccc(CN2CCC3(CC2)ONC2=NCCN23)cc1,> 100 µM,> 100 µM,91.5,> 100 µM,> 100 µM,> 100 µM,–
O=C(Oc1ccccc1Cl)c1cccnc1Nc1ccnc(C(F)(F)F)c1,11.9 µM,46.7 µM,4.53,18.3 µM,29.4 µM,> 100 µM,–
CCCCCCCCOC(=O)c1cc(O)c(O)c(O)c1,12.1 µM,63.1 µM,1.53,16.5 µM,2.61 µM,21.8 µM,–
C/C(=C\c1ccccc1)C(O)S(=O)(=O)O (stereo not drawn),–,–,–,–,–,–,TGI [8]: > 100 µM; TGI [5]: > 100 µM; TGI [6]: > 100 µM
CCCCCCCCCCCCCCCC[N+](C)(C)C,0.169 µM and 1.38 µM,0.405 µM and 3.55 µM,0.241,0.761 µM,0.272 µM and 2.56 µM,1.2 µM and 9.59 µM,–
CC(=O)[CH-]C(=O)c1ccccc1.CC(=O)[CH-]C(=O)c1ccccc1.[O-]c1ccc(O)cc1.[O-]c1ccc(O)cc1.[Ti+4],–,–,–,–,–,–,GI50 [5]: 24.5 µM; TGI [5]: 66.9 µM; GI50 [6]: 27.1 µM; TGI [6]: 72.2 µM
